Measurements reported in PMC9977294, “A parasitic fungus employs mutated eIF4A to survive on rocaglate-synthesizing Aglaia plants” (eLife, 2023).
“And” between values parts separate entries of the source, which are not always exact repeats. Equal values may be shown once. Read-outs that look alike come from different tables or passages of the source.

Legend:
[1] = molecular target: T1, O. sinensis eIF4A His154Gly (Ophiocordyceps sinensis, UniProt A0A8H4LTQ8, H154G); test: Fluorescence polarization assay, FAM-labeled [AG]10 RNA and recombinant eIF4A; format: binding; details: [AG]10 RNA, AMP-PNP, RocA
T1 sequence (A0A8H4LTQ8 1-397 H154G): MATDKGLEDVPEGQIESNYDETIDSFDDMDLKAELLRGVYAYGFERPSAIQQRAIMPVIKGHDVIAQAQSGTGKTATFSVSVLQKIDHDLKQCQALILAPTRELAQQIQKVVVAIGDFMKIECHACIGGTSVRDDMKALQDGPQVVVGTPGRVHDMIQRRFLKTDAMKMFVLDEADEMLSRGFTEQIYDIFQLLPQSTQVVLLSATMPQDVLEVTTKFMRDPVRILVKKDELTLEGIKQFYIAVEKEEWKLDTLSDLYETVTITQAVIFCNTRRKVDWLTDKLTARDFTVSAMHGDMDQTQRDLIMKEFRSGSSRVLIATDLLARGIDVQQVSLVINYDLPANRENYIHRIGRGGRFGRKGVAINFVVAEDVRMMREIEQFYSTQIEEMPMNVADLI

[2] = molecular target: T2, O. sinensis eIF4A WT His154 (Ophiocordyceps sinensis, UniProt A0A8H4LTQ8); test: as above; format: binding; details: for Kd: [AG]10 10 nM, compound 50 µM, read-out: Kd between eIF4A protein and RNA
T2 sequence (A0A8H4LTQ8 1-397): T1 sequence (A0A8H4LTQ8 1-397 H154G)

[3] = [AG]10, ADP + Pi, RocA 50 µM, protein 0.05 μM
[4] = [AG]10, ADP + Pi, RocA 50 µM, protein 0.075 μM
[5] = [AG]10, ADP + Pi, RocA 50 µM, protein 0.1 μM
[6] = [AG]10, ADP + Pi, RocA 50 µM, protein 0.5 μM
[7] = [AG]10, ADP + Pi, RocA 50 µM, protein 0.75 μM
[8] = [AG]10, ADP + Pi, RocA 50 µM, protein 1 μM
[9] = [AG]10, ADP + Pi, RocA 50 µM, protein 5 μM
[10] = [AG]10, ADP + Pi, RocA 50 µM, protein 7.5 μM
[11] = [AG]10, ADP + Pi, RocA 50 µM, protein 10 μM
[12] = [AG]10, ADP + Pi, RocA 50 µM, protein 25 μM
[13] = [AG]10, ADP + Pi, RocA 50 µM, protein 50 μM
[14] = [AG]10 RNA, AMP-PNP, RocA, protein concentration 0.01 μM
[15] = [AG]10 RNA, AMP-PNP, RocA, protein concentration 0.05 μM
[16] = [AG]10 RNA, AMP-PNP, RocA, protein concentration 0.075 μM
[17] = [AG]10 RNA, AMP-PNP, RocA, protein concentration 0.1 μM
[18] = [AG]10 RNA, AMP-PNP, RocA, protein concentration 0.5 μM
[19] = [AG]10 RNA, AMP-PNP, RocA, protein concentration 0.75 μM
[20] = [AG]10 RNA, AMP-PNP, RocA, protein concentration 1 μM
[21] = [AG]10 RNA, AMP-PNP, RocA, protein concentration 5 μM
[22] = [AG]10 RNA, AMP-PNP, RocA, protein concentration 7.5 μM
[23] = [AG]10 RNA, AMP-PNP, RocA, protein concentration 10 μM
[24] = [AG]10 RNA, AMP-PNP, RocA, protein concentration 25 μM
[25] = [AG]10 RNA, AMP-PNP, RocA, protein concentration 50 μM

SMILES: COc1ccc([C@@]23Oc4cc(OC)cc(OC)c4[C@]2(O)[C@H](O)[C@H](C(=O)N(C)C)[C@H]3c2ccccc2)cc1 [RocA, rocaglamide A]
- fluorescence polarization, Mean ([1]; protein concentration 0.75 μM): 0.9672
- Fluorescence polarization, Replicate 1-3 ([1]; protein concentration 1 μM): 1.175 and 1.167 and 1.109
- Fluorescence polarization, Replicate 1-3 ([1]; protein concentration 5 μM): 1.5847 and 1.5765 and 1.601
- fluorescence polarization, Mean ([1]; protein concentration 5 μM): 1.587
- Fluorescence polarization, Replicate 1-3 ([1]; protein concentration 7.5 μM): 1.511 and 1.56 and 1.601
- fluorescence polarization, Mean ([1]; protein concentration 7.5 μM): 1.557
- Fluorescence polarization, Replicate 1-3 ([1]; protein concentration 10 μM): 1.675 and 1.56 and 1.667
- fluorescence polarization, Mean ([1]; protein concentration 10 μM): 1.634
- Fluorescence polarization, Replicate 1-3 ([1]; protein concentration 25 μM): 1.5847 and 1.699 and 1.626
- fluorescence polarization, Mean ([1]; protein concentration 25 μM): 1.637
- Fluorescence polarization, Replicate 1-3 ([1]; protein concentration 50 μM): 1.65 and 1.626 and 1.691
- fluorescence polarization, Mean ([1]; protein concentration 50 μM): 1.656
- Kd ([2]; ADP + Pi (1 mM each)): ~110 nM and 110 nM
- Kd ([2]; AMP-PNP 1 mM): 90 ± 14 nM
- fluorescence polarization, replicates ([2]; [AG]10, ADP + Pi, RocA 50 µM, protein 0.01 μM): 0.1995
- fluorescence polarization, Mean [2, 3]: 0.4699
- fluorescence polarization, replicates [2, 3]: 0.5109 and 0.4536
- fluorescence polarization, Mean [2, 4]: 0.6066
- fluorescence polarization, replicates [2, 4]: 0.6585
- fluorescence polarization, Mean [2, 5]: 0.7049
- fluorescence polarization, replicates [2, 5]: 0.7732 and 0.6667
- fluorescence polarization, Mean [2, 6]: 1.713
- fluorescence polarization, replicates [2, 6]: 1.781 and 1.675 and 1.683
- fluorescence polarization, Mean [2, 7]: 1.757
- fluorescence polarization, replicates [2, 7]: 1.724 (2×) and 1.8224
- fluorescence polarization, Mean [2, 8]: 1.82
- fluorescence polarization, replicates [2, 8]: 1.8224 (2×) and 1.814
- fluorescence polarization, Mean [2, 9]: 1.888
- fluorescence polarization, replicates [2, 9]: 1.913 and 1.872 and 1.88
- fluorescence polarization, Mean [2, 10]: 1.883
- fluorescence polarization, replicates [2, 10]: 1.855 and 1.904 and 1.888
- fluorescence polarization, Mean [2, 11]: 1.893
- fluorescence polarization, replicates [2, 11]: 1.921 and 1.896 and 1.863
- fluorescence polarization, Mean [2, 12]: 1.861
- fluorescence polarization, replicates [2, 12]: 1.863 and 1.913 and 1.806
- fluorescence polarization, Mean [2, 13]: 1.801
- fluorescence polarization, replicates [2, 13]: 1.814 and 1.798 and 1.79
- Fluorescence polarization, Replicate 1-3 [2, 14]: 0.1557 and 0
- fluorescence polarization, Mean [2, 14]: 0.09016
- Fluorescence polarization, Replicate 1-3 [2, 15]: 0.5246 (2×) and 0.418
- fluorescence polarization, Mean [2, 15]: 0.4891
- Fluorescence polarization, Replicate 1-3 [2, 16]: 0.5328 and 0.6803
- fluorescence polarization, Mean [2, 16]: 0.6175
- Fluorescence polarization, Replicate 1-3 [2, 17]: 0.8689 and 0.8033 and 0.7049
- fluorescence polarization, Mean [2, 17]: 0.7923
- Fluorescence polarization, Replicate 1-3 [2, 18]: 1.713 (2×) and 1.631
- fluorescence polarization, Mean [2, 18]: 1.686
- Fluorescence polarization, Replicate 1-3 [2, 19]: 1.795 and 1.7459 and 1.77
- fluorescence polarization, Mean [2, 19]: 1.77
- Fluorescence polarization, Replicate 1-3 [2, 20]: 1.861 and 1.836 and 1.779
- fluorescence polarization, Mean [2, 20]: 1.825
- Fluorescence polarization, Replicate 1-3 [2, 21]: 1.787 and 1.828 and 1.811
- fluorescence polarization, Mean [2, 21]: 1.809
- Fluorescence polarization, Replicate 1-3 [2, 22]: 1.869 and 1.877 and 1.844
- fluorescence polarization, Mean [2, 22]: 1.863
- Fluorescence polarization, Replicate 1-3 [2, 23]: 1.836 and 1.7459 and 1.795
- fluorescence polarization, Mean [2, 23]: 1.792
- Fluorescence polarization, Replicate 1-3 [2, 24]: 1.902 and 1.77 and 1.779
- fluorescence polarization, Mean [2, 24]: 1.817
- Fluorescence polarization, Replicate 1-3 [2, 25]: 1.852 and 1.787 and 1.77
- fluorescence polarization, Mean [2, 25]: 1.803
